Data reported in US5945400A, “Nucleic acid-containing composition, preparation and use thereof” (Rhone-Poulenc Rorer SA, priority 1995, dated 1999).
Values after ≈ are worked out from the molar mass of the structure shown. No end group written: not given here.

Columns and labels:
NIH 3T3 cells = experiment: in vitro transfer of nucleic acid into NIH 3T3 cells with DOGS (luciferase activity); type: cell-based; conditions: 0.25 μg compound
Description: (§1) 1. A mixture of 10 μl composed of the following is prepared:
0.5 μg of pCMV-luc plasma DNA, 0.25 μg of a compound according to the invention, in a buffer solution as identified,
40 mM dioctadecylamidoglycylspermine (DOGS) in charge ratios X as indicated in each of the tests. 2. 5·10^4 cells from the NIH3T3 lines are incubated with the above mixture at 37° C., under an atmosphere of 5% CO2 for 4 hours. The cells are then washed and recultured for 48 hours in a medium containing 10% serum (DMEM 10% SVF).
The cell carpet is then lysed in 50 μl of lysis buffer (Promega), recovered and then centrifuged at 20,000 g for 5 minutes.
The luciferase activity is measured on 4 μl of supernatant by adding 20 μl of substrate (Promega). The reading is taken on a LKB luminometer, cumulating the RLUs (relative light units) over 20 seconds.
3. Compaction in 150 mM NaCl, 10 mM HEPES* (* N-(2-hydroxyethyl)piperazine-N'-(2-ethanesulphonic acid) at pH 7.1
4. Compaction in 5% D-glucose, 150 mM NaCl, with 10 mM HEPES (pH of the compaction solution: 7.2)

NIH3T3 cells [1] = experiment: Variation of compound/DNA ratio in the presence of DOGS, luciferase activity; type: cell-based; conditions: PEP/DNA w/v 0 (no peptide); DOGS charge ratio 1.8x; 0.75 μg DNA
Description: as §1
0.75 μg of pCMV-luc plasma DNA and a compound according to the invention in the ratio indicated, in 5% D-glucose, 150 mM NaCl buffer solution, with 10 mM HEPES (pH of the compaction solution: 7.2),
40 mM dioctadecylamidoglycylspermine (DOGS) in a charge ratio of 1.8×.
(§2) 2. 4·10^5 cells from NIH3T3 lines are incubated with the above mixture at 37° C., under an atmosphere of 5% CO2 for 4 hours. The cells are then washed and recultured for 48 hours in a medium containing 10% serum (DMEM 10% SVF). The cell carpet is then lysed, 45 hours after the transfection, in 100 μl of lysis buffer (Promega), recovered and then centrifuged at 20,000 g for 5 minutes. The luciferase activity is measured on 5 μl of the supernatant, adding 25 μl of substrate (Promega). The reading is taken on an LKB luminometer, cumulating the RLUs (relative light units) over 20 seconds.

[2] = tested on: tumours of type 3LL (Lewis Lung carcinoma); experiment: In vivo transfer into tumour cells (3LL tumours), luciferase activity; parameters: species or system mice; conditions: no peptide
Description: The corresponding tests are carried out on adult (>8 weeks) female C57/BL mice carrying tumours of type 3LL (Lewis Lung carcinoma) obtained by passing fragments of tumour from animal to animal, implanted under the skin of the flank.
As regards the solutions injected, they are prepared as follows: the DNA is first dissolved in the buffer, the peptide is then optionally added and, after 20 minutes, a solution of cationic lipids at high concentration (20 or 40 mM) is added to the mixture. After addition of all these products, the mixture contains, besides the DNA, the peptide and the cationic lipid, 150 mM NaCl, 5% D-glucose and 5 mM MES pH 6.2. In the case of the last two series with lipopolyamine C (RPR 120 535), the injection vehicle is 75 mM NaCl and 150 mM NaCl, 5% D-glucose respectively. The injection is made 20 to 30 minutes after the solution has been prepared.
Each transfecting composition (see Tables 9 and 10 for their respective specificities) is injected into the tumour 7 days after implantation, the mouse being anaesthetized with a ketamine 130 mg/kg+xylazine (4 mg/kg) mixture.
Two days after the injection, the tumour tissue is removed, weighed and then chopped up and ground in 500 μl of lysis buffer (Promega cell lysis buffer E153 A). After centrifugation (20,000 g for 10 minutes), 10 μl are taken and used to evaluate the luciferase activity by measuring the total light emission obtained after mixing with 50 μl of reagent (Promega luciferase assay substrate) in a Lumat LB 9501 luminometer (Berthold), with integration over 10 seconds.
The resulting activity is expressed as RLUs (relative light units) estimated in the entire tumour lysis supernatant, or as RLU per μg of DNA injected.

3LL cells = experiment: In vitro transfer of nucleic acid into 3LL cells, luciferase activity; type: cell-based; conditions: 0.5 μg DNA, 0.5 μg peptide, 75 mM NaCl
Description: A mixture of 10 μl composed of the following is prepared: 0.5 μg of pCMV-luc plasmid DNA, 0.5 μg of PR1 or PR2 a compound according to the invention, in a solution of 75 mM NaCl final lipopolyamine C (RPR 120535) in charge ratios as indicated in each of the tests listed in Table 11 below. 1×10^5 3LL cells (in 250 μl of DMEM culture medium with 10% foetal calf serum) are incubated with the above mixture at 37° C. under a 5% CO2 atmosphere for 4 hours. 500 μl of culture medium are added and the cells are recultured. The following day, the cells are washed and recultured for 24 hours in the same medium containing 10% foetal calf serum. The cell carpet is then lysed in 100 μl of lysis buffer (Promega). The luciferase activity is measured by adding 50 μl of substrate (Promega). The reading is taken on an LB luminometer by cumulating the RLUs (relative light nits) over 10 seconds.

NIH3T3 cells [3] = experiment: Variation of compound/DNA ratio in the presence of lipopolyamine A, luciferase activity; type: cell-based; conditions: Compound/DNA ratio 0
Description: as §1
0.55 μg of pCNV-luc plasma DNA and a compound according to the invention, in the ratio indicated, in 150 mM NaCl buffer solution,
1,3-bis (3-aminopropylamino) -2-propyl (dioctadecyl-carbamoylmethoxy)acetate in the charge ratios indicated.
as §2, with “2. 5·10^4” for “2. 4·10^5”, “on 10” for “on 5”, “adding 50” for “adding 25”, “on a Berthold lumat 9501®” for “on an LKB”, “over 10” for “over 20”

physchem = type: physicochemical
Description: This oligopeptide was synthesized in the form of the trifluoroacetic acid salt using an Applied Biosystem 431A peptide synthesizer, on an HMP resin (Applied Biosystem) and according to an FMOC strategy. After the synthesis, the peptide was released from the resin by treatment for 90 minutes in the presence of 1/19 water/TFA solution. After filtration, the solution is concentrated on a rotary evaporator and the peptide is then precipitated twice, by addition of tert-butyl methyl ether, from a solution in TFA. The final pellet is washed with tert-butyl methyl ether and then dried. The peptide is dissolved in 5 ml of water, filtered and purified by reverse-phase HPLC on a C18 100 A column (Biorad RSL). The peptide is purified by with the aid of a gradient of 0 to 25% of acetonitrile, 0.07% TFA in water 0.07% TFA. The purity of the peptide obtained is greater than 95% and its solubility in water is 100 mg/ml.
This oligopeptide was synthesized in the form of the trifluoroacetic acid salt according to the procedure described above, using 2/40/3/1/2 (v/v) water/TFA/phenol/ethanedithiol/thioanisole solution for the cleavage. The purity of the peptide obtained is greater than 95% and its solubility in water is 100 mg/ml at pH 2.1.
These oligopeptides are synthesized in the form of the trifluoroacetic acid salts according to the procedure described above. To do this, the resin is divided into two batches. A first batch intended for the synthesis of H is treated for the cleavage with 40/3/1/2/2 (v/v) TFA/phenol/ethanedithiol/thioanisole/water solution. The purity of the peptide obtained is greater than 90% and its solubility in water is 10 mg/ml at pH 2.1. The synthesis is continued on the second batch of resin so as to obtain nls-βAla-H. The cleavage solution used is identical to the previous one. The purity of the peptide obtained is greater than 95% and its solubility in water is 10 mg/ml at pH 2.1.

For CCCCCCCCCCCCCCCCCCN(CCCCCCCCCCCCCCCCCC)C(=O)CNC(=O)C(CCCNCCCN)NCCCN (stereo not shown) [DOGS, dioctadecylamidoglycylspermine], which luciferase activity (NIH 3T3 cells; Table 1, DOGS/DNA charge ratio 0.8x, compaction in 150 mM NaCl, 10 mM HEPES pH 7.1, 0.5 μg pCMV-luc) is on record?
The luciferase activity was 32 R.L.U.

What about the luciferase activity (NIH 3T3 cells; Table 1, DOGS/DNA charge ratio 1.8x, 150 mM NaCl, 10 mM HEPES pH 7.1, 0.5 μg pCMV-luc) of the same compound?
The luciferase activity was 220 R.L.U.

What about the luciferase activity (NIH 3T3 cells; Table 1, DOGS/DNA charge ratio 3x, 150 mM NaCl, 10 mM HEPES pH 7.1, 0.5 μg pCMV-luc) of the same compound?
The luciferase activity was 5400 R.L.U.

And the luciferase activity (NIH 3T3 cells; Table 2, DOGS/DNA charge ratio 0.8x, 5% D-glucose, 150 mM NaCl, 10 mM HEPES pH 7.2, 0.5 μg DNA)?
Its luciferase activity is 880 R.L.U.

And the luciferase activity (NIH 3T3 cells; Table 2, DOGS/DNA charge ratio 1.8x, 5% D-glucose, 150 mM NaCl, 10 mM HEPES pH 7.2, 0.5 μg DNA)?
The luciferase activity was 6600 R.L.U.

What about the luciferase activity (NIH 3T3 cells; Table 2, DOGS/DNA charge ratio 3x, 5% D-glucose, 150 mM NaCl, 10 mM HEPES pH 7.2, 0.5 μg DNA) of the same compound?
Its luciferase activity is 22000 R.L.U.

And the luciferase activity (NIH3T3 cells [1])?
The luciferase activity was 2150 RLU.

Which results are given for CCCCCCCCCCCCCCCCCCN(CCCCCCCCCCCCCCCCCC)C(=O)CNC(=O)CNCCCNCCCCNCCCN [Lipopolyamine C, H2 N(CH2)3 NH(CH2)4 NH(CH2)3 NHCH2 COGlyN[(CH2)18]2]?
Result, RLU/tumour average ([2]; 18.75 μg DNA/tumour, 0.25 μg/μl, cationic lipid C 2 nmol/μg DNA, vehicle 75 mM NaCl): 222 700 RLU/tumour; Result, RLU/tumour average ([2]; 20 μg DNA/tumour, 0.5 μg/μl, cationic lipid C 4 nmol/μg DNA, vehicle 150 mM NaCl, 5% D-glucose): 806 467 RLU/tumour; luciferase activity (3LL cells; Table 11, Lipopolyamine C/DNA charge ratio 4x): 107 289 RLU; luciferase activity (3LL cells; Table 11, Lipopolyamine C/DNA charge ratio 6x): 77 396 RLU; luciferase activity (3LL cells; Table 11, Lipopolyamine C/DNA charge ratio 8x): 14 512 RLU; luciferase activity (3LL cells; Table 12, Lipopolyamine C/DNA charge ratio 4x): 12 037 RLU; luciferase activity (3LL cells; Table 12, Lipopolyamine C/DNA charge ratio 6x): 901 RLU; luciferase activity (3LL cells; Table 12, Lipopolyamine C/DNA charge ratio 8x): 328 RLU

What does the source list for CCCCCCCCCCCCCCCCCCN(CCCCCCCCCCCCCCCCCC)C(=O)COCC(=O)OC(CNCCCN)CNCCCN [lipopolyamine A, d,1-3-bis(3-aminopropylamino)-2-propyl (dioctadecyl-carbamoylmethoxy)acetate]?
luciferase activity (NIH3T3 cells [3]; lipopolyamine A 3x): 8.9 10^6 RLU; luciferase activity (NIH3T3 cells [3]; lipopolyamine A 6x): 6.2 10^6 RLU; luciferase activity (NIH3T3 cells [3]; lipopolyamine A NH2/DNA phosphates 1.8x): 3.9 10^6 RLU; Result, RLU/tumour average ([2]; 7.5 μg DNA/tumour, 0.5 μg/μl, cationic lipid A 3 nmol/μg DNA): 88 712 RLU/tumour; Result, RLU/tumour average ([2]; 20 μg DNA/tumour, 2 μg/μl, cationic lipid A 1.8 nmol/μg DNA): 142 300 RLU/tumour; Result, RLU/tumour average ([2]; 30 μg DNA/tumour, 2 μg/μl, cationic lipid A 3 nmol/μg DNA): 99 775 RLU/tumour

Which solubility (physchem; pH 2.1, water) does the source give for CC(C)[C@H](NC(=O)[C@H](CCCCN)NC(=O)[C@H](CCCNC(=N)N)NC(=O)[C@H](CCCCN)NC(=O)[C@H](CCCCN)NC(=O)[C@H](CCCCN)NC(=O)[C@@H]1CCCN1)C(=O)O [nls, ProLysLysLysArgLysVal] here?
Its solubility is 100 mg/mL (≈ 113 mM).

Which solubility (physchem; pH 2.1, water) does the source give for CC(C)[C@H](NC(=O)[C@H](CCCCN)NC(=O)[C@H](CCCNC(=N)N)NC(=O)[C@H](CCCCN)NC(=O)[C@H](CCCCN)NC(=O)[C@H](CCCCN)NC(=O)[C@@H]1CCCN1)C(=O)NCCC(=O)N[C@@H](CCCCN)C(=O)N[C@H](C(=O)N1CCC[C@H]1C(=O)N[C@@H](CCCCN)C(=O)N[C@@H](CCCCN)C(=O)N[C@@H](C)C(=O)N[C@@H](CCCCN)C(=O)N[C@@H](CCCCN)C(=O)N1CCC[C@H]1C(=O)N[C@@H](CCCCN)C(=O)N[C@H](C(=O)N1CCC[C@H]1C(=O)N[C@@H](CCCCN)C(=O)N[C@@H](CCCCN)C(=O)N[C@@H](C)C(=O)N[C@@H](CCCCN)C(=O)N[C@@H](CCCCN)C(=O)N1CCC[C@H]1C(=O)O)[C@@H](C)O)[C@@H](C)O [nls-H, ProLysLysLysArgLysVal-βAlaLysThrProLysLysAlaLysLysProLysThrProLysLysAlaLysLysPro (COOH) (SEQ ID No.9)] here?
Its solubility is 10 mg/mL (≈ 3.37 mM).

With “ATPAKKAAATPAKKAA [N, AlaThrProAlaLysLysAlaAlaAlaThrProAlaLysLysAlaAla (COOH) (SEQ ID No.:3)]” as the compound, how does the solubility (physchem; water) read?
The solubility was 100 mg/mL.

With “KTPKKAKKPKTPKKAKKP [H, LysThrProLysLysAlaLysLysProLysThrProLysLysAlaLysLysPro (COOH) (SEQ ID No.:4)]” as the compound, how does the solubility (physchem; pH 2.1, water) read?
Its solubility is 10 mg/mL.
